Literature values, collected in US20210059959A1, “USE OF CANNABINOIDS IN THE TREATMENT OF MENTAL DISORDERS” (GW Pharma Limited, priority 2015, published 2021).

Test system: positive or negative symptoms of schizophrenia
Settings: placebo-controlled clinical trial; cited from earlier work

Compound: Cc1c(C(=O)NN2CCCCC2)nn(-c2ccc(Cl)cc2Cl)c1-c1ccc(Cl)cc1 [rimonabant]
- Effect on positive or negative symptoms of schizophrenia: no effect
